From patent publication US20080161232A1, “C5a Receptor Antagonist” (JERINI AG, priority 2005, published 2008)
Starred links: 1 amine or outer side, 2 acyl side, 3 side chain; linkers in the order of their positions; H or OH if unused. Positions of bridges follow the written chain, without caps; N, C: chain ends. Non-standard residues stand in square brackets, D forms with d. Residues, ends and D or L forms follow the SMILES beside them. *: point of attachment. Orn(2-imidazolinyl) = N[C@@H](CCCNC1=NCCN1)C(=O)O; Phe(3-Cl) = N[C@@H](Cc1cccc(Cl)c1)C(=O)O; Phe(3-F) = N[C@@H](Cc1cccc(F)c1)C(=O)O; Phe(4-F) = N[C@@H](Cc1ccc(F)cc1)C(=O)O; Bta = N[C@@H](Cc1csc2ccccc12)C(=O)O; Hydrocinnamoyl = O=C(CCc1ccccc1)*; Hyp = O=C(O)[C@@H]1C[C@@H](O)CN1; d(hLeu) = CC(C)CC[C@@H](N)C(=O)O; Cha = N[C@@H](CC1CCCCC1)C(=O)O; dCha = N[C@H](CC1CCCCC1)C(=O)O; AllylGly = C=CC[C@H](N)C(=O)O; NHPhenethyl = c1ccc(CCN*)cc1; Nle = CCCC[C@H](N)C(=O)O; Orn = NCCC[C@H](N)C(=O)O; Aze = O=C(O)[C@@H]1CCN1; CO = O=C([*:1])[*:2]; tBu = CC(C)(C)*; NHBu = CCCCN*

B1: hrC5a: hrC5a (Sigma), added for stimulation of enzyme release (protein, UniProt P01031 678-751, looked up)
C5a anaphylatoxin: TLQKKIEEIAAKYKHSVVKKCCYDGACVNNDETCEQRAARISLGPRCIKAFTECCVVASQLRANISHKDMQLGR
modifications: C5a anaphylatoxin
notes: hrC5a (Sigma), added for stimulation of enzyme release

How the values were obtained:
human C5aR(CD88) [1] = target: T1, human C5aR(CD88) (Homo sapiens, UniProt P21730); experiment: Determination of the IC50 value in an enzyme release assay (functional assay, antagonistic activity); assay type: cell-based; conditions: for IC50: antagonistic activity, IC50 group in enzyme release assay, RBL cells expressing human C5aR(CD88), read-out: activity (group); for inhibitory activity (in words): functional assay of example 11, noteworthy = IC50 less than 200 nM
T1 construct: expressed in transfected cells; host or cells: rat basophilic leukemia cells (RBL)
T1 sequence (P21730 1-350): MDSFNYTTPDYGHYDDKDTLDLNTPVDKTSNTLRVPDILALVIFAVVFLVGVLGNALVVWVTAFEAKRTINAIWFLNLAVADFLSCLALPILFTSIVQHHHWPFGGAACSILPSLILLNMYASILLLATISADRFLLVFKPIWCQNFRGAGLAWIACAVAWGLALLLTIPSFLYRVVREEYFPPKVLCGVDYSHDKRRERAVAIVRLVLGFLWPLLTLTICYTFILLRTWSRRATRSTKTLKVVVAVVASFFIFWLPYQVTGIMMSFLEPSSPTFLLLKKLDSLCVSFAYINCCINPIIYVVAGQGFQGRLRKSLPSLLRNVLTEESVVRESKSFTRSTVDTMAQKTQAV

human C5aR(CD88) [2] = target: T1, human C5aR(CD88); experiment: Determination of EC50-values in an enzyme release assay (agonistic activity); assay type: cell-based; conditions: for EC50: agonistic activity, no C5a added, read-out: EC50; for agonistic activity (in words): cellular assay, up to a concentration of at least 1430 nM
Method: The assay procedure was described by Kohl (Kohl 1997 The Anaphylatoxins. In: Dodds, A. W., Sim, R. B. (Eds.), Complement: A Practical Approach. Oxford, pp. 135-163). Basophilic leukemia cells from rats (RBL), which express the human C5aR(CD88), were cultivated in DMEM with 10% fetal bovine serum, 100 U/ml penicillin, 100 μg/ml streptomycin and 2 mM glutamine (all components of the media from Biochrome, Berlin) to confluence at 37° C. and 10% CO2. The following specifications refer to single cell culture flask having a surface of 75 cm^2. Medium was decanted from cells. Cells were washed with 10 ml PBS (Dulbecco's PBS, Biochrome) and subsequently overlayed with 3 ml Cell Dissociation Solution (CDS, Sigma). Cells were incubated for 1 min at room temperature. Subsequently, CDS was removed and the cells were further incubated for 10-15 min at 37° C. for dissociation. In the assay, 20 μl of the solution containing the compound to be tested were used. This solution should not contain more than 2.8% DMSO. For the dilution process, the compounds were diluted in ⅓ or ½ steps. To 20 μl compound solution 75 μl of the RBL-cells were added, which were treated as follows: after dissociation cells were detached and warmed at 37° C. in 10 ml HAG-CM (20 mM HEPES; 125 mM NaCl, 5 mM KCl, 1 mM CaCl2, 1 mM MgCl2, 0,5 mM Glucose, 0,25% BSA. HEPES-preparation: 2.3 g/l HEPES-salt +2.66 g/l HEPES acid). Cells were counted and centrifuged (200×g, 10 min). The cell pellet was resuspended in preheated HAG-CM (i.e. Hepes-buffer NaCl-glucose-solution with calcium and magnesium), and the cell density was adjusted to 2×10^6 cells/ml. The cells were incubated at 37° C. for 5 min. Per ml cell suspension 27 μl of a cytochalasin B-solution were added (100 μg/ml in DMSO, Sigma). The cells were incubated for further 3 min at 37° C. 75 μl of the cell suspension were added to 20 μl compound solution leading to a volume of 95 μl per well. After incubation of the cells for 10 min at 37° C. 10 μl hrC5a (10.5 nM in HAG-CM, Sigma) per well were added. The cells were incubated for additional 5 min at 37° C. The mtp was then transferred to ice and centrifuged for 3 min at 4° C. with 1200×g. 75 μl of the supernatant were added to 100 μl substrate-solution (2.7 mg/ml p-nitrophenyl-N-acetyl-β-D-glucosaminide (Sigma) in 42.5 mM Na-acetate pH 4.5). The mtp was incubated for further 60 min at 37° C. 75 μl 0.4 M glycine pH 10.4 were added per well. The mtp was transferred into a reader and the absorption at 405 nm was measured. IC50-values were obtained following the equation; y=((A-D)/(1+(x/C)^B))+D.
Determination of EC50-Values in an Enzyme Release Assay
The determination of EC50-values was performed according to the procedure given in example II, with the exception that 30 μl of the test compound need to be mixed with 75 μl of the cell suspension mentioned in example 11. Neither preincubation nor addition of C5a for stimulation of enzyme release is needed.

| Molecule | IC50 (human C5aR(CD88) [1]) [nM] | agonistic activity (in words) (human C5aR(CD88) [2]) | other results |
| --- | --- | --- | --- |
| CC(=O)N[C@@H](Cc1ccccc1)C(=O)N[C@@H](Cc1c[nH]c2ccccc12)C(=O)N1CCC[C@H]1C(=O)N[C@H](CC1CCCCC1)C(=O)N[C@@H](Cc1c[nH]c2ccccc12)C(=O)N[C@@H](Cc1ccccc1)C(N)=O [Compound 84, Ac-Phe-Trp-Pro-cha-Trp-Phe-NH2] (Ac-FWP[dCha]WF-NH2) | 50 to 200 | pure antagonists | EC50 (human C5aR(CD88) [2]): > 100000 nM |
| C=CC[C@@H]1NC(=O)[C@H](Cc2c[nH]c3ccccc23)NC(=O)[C@@H](CC2CCCCC2)NC(=O)[C@@H]2CCCN2C(=O)[C@@H](NC(=O)[C@H](Cc2ccccc2)NC(C)=O)CCCNC1=O [Compound 33, Ac-Phe-[Orn-Pro-cha-Trp-Eaf]] (Ac-F[Orn]P[dCha]W[AllylGly]; lactam 2-C) | 5 to 10 | pure antagonists | inhibitory activity (in words) (human C5aR(CD88) [1]): without significant loss of activity; inhibitory activity (in words) (human C5aR(CD88) [1]; listed as Ac-Phe-[Orn-Pro-cha-Trp-Eaf]): noteworthy inhibitory activity; EC50 (human C5aR(CD88) [2]): > 1430 nM |
| CCCC[C@@H]1NC(=O)[C@H](Cc2c[nH]c3ccccc23)NC(=O)[C@@H](CC2CCCCC2)NC(=O)[C@H](CO)NC(=O)[C@@H](NC(=O)[C@@H](N)Cc2ccccc2)CCCNC1=O [Compound 44, H-Phe-[Orn-Ser-cha-Trp-Nle]] (H-F[Orn]S[dCha]W[Nle]; lactam 2-C) |  | pure antagonists |  |
| N[C@@H](Cc1ccccc1)C(=O)N[C@H]1CCCNC(=O)[C@H](Cc2ccccc2)NC(=O)[C@H](Cc2c[nH]c3ccccc23)NC(=O)[C@@H](CC2CCCCC2)NC(=O)[C@@H]2CCCN2C1=O [H-Phe-[Orn-Pro-cha-Trp-Phe]] (H-F[Orn]P[dCha]WF; lactam 2-C) |  | pure antagonists |  |
| CC(=O)N[C@@H](Cc1ccccc1)C(=O)N[C@@H](CCCN)C(=O)N1CCC[C@H]1C(=O)N[C@H](CC1CCCCC1)C(=O)N[C@@H](Cc1c[nH]c2ccccc12)C(=O)N[C@@H](Cc1ccccc1)C(N)=O [Compound 61, Ac-Phe-Orn-Pro-cha-Trp-Phe-NH2] (Ac-F[Orn]P[dCha]WF-NH2) |  | pure antagonists | EC50 (human C5aR(CD88) [2]): > 100000 nM |
| CC(=O)N[C@@H](Cc1ccccc1)C(=O)N[C@@H](CCCN)C(=O)N[C@H](CC1CCCCC1)C(=O)N[C@H](CC1CCCCC1)C(=O)N[C@@H](Cc1csc2ccccc12)C(=O)N[C@@H](Cc1ccccc1)C(N)=O [Ac-Phe-Orn-cha-cha-Bta-Phe-NH2] (Ac-F[Orn][dCha][dCha][Bta]F-NH2) |  | pure antagonists |  |
| CC(=O)N[C@@H](C)C(=O)N[C@@H](Cc1ccccc1)C(=O)N[C@@H](CCCN)C(=O)N1CC[C@H]1C(=O)N[C@H](CC1CCCCC1)C(=O)N[C@@H](Cc1csc2ccccc12)C(=O)N[C@@H](Cc1ccccc1)C(N)=O [Compound 151, Ac-Ala-Phe-Orn-Aze-cha-Bta-Phe-NH2] (Ac-AF[Orn][Aze][dCha][Bta]F-NH2) | 20 to 50 |  |  |
| CC(=O)N[C@@H](Cc1ccccc1)C(=O)N[C@@H](CCCNC1=NCCN1)C(=O)N1CCC[C@H]1C(=O)N[C@H](CC1CCCCC1)C(=O)N[C@@H](Cc1csc2ccccc12)C(=O)N[C@@H](Cc1ccccc1)C(N)=O [Compound 225, Ac-Phe-Ffa-Pro-cha-Bta-Phe-NH2] (Ac-F[Orn(2-imidazolinyl)]P[dCha][Bta]F-NH2) | 20 to 50 |  |  |
| CC(=O)N[C@@H](Cc1ccccc1)C(=O)N[C@@H](CCCN)C(=O)N1CCC[C@H]1C(=O)N[C@H](CCC(C)C)C(=O)N[C@@H](Cc1csc2ccccc12)C(=O)N[C@@H](CC1CCCCC1)C(N)=O [Compound 274, Ac-Phe-Orn-Pro-hle-Bta-Cha-NH2] (Ac-F[Orn]P[d(hLeu)][Bta][Cha]-NH2) | 50 to 200 |  |  |
| CC(=O)N[C@@H](Cc1ccccc1)C(=O)N[C@@H](CCCN)C(=O)N1CCC[C@H]1C(=O)N[C@H](CC1CCCCC1)C(=O)N[C@@H](Cc1c[nH]c2ccccc12)C(=O)NCCc1ccccc1 [Compound 72, Ac-Phe-Orn-Pro-cha-Trp-NH—CH2—CH2-Ph] (Ac-F[Orn]P[dCha]W-NHPhenethyl) | 200 to 2000 |  |  |
| CCCC[C@@H]1NC(=O)[C@H](Cc2ccc(F)cc2)NC(=O)[C@@H](CSC(C)(C)C)NC(=O)[C@@H]2C[C@@H](O)CN2C(=O)[C@@H](NC(=O)[C@@H](N)Cc2ccccc2)CCCNC1=O [Compound 358, H-Phe-[Orn-Hyp-ctb-Pff-Nle]] (H-F[Orn][Hyp][dC](tBu)[Phe(4-F)][Nle]; lactam 2-C) | 50 to 200 |  |  |
| CC(C)CC[C@H]1NC(=O)[C@H](CO)NC(=O)[C@@H](NC(=O)[C@@H](N)Cc2ccccc2)CCCNC(=O)[C@H](CC(C)C)NC(=O)[C@H](Cc2cccc(Cl)c2)NC1=O [Compound 385, H-Phe-[Orn-Ser-hle-Mcf-Leu]] (H-F[Orn]S[d(hLeu)][Phe(3-Cl)]L; lactam 2-C) | 50 to 200 |  |  |
| CC(=O)N[C@@H](Cc1ccccc1)C(=O)N[C@H]1CCCNC(=O)[C@H](CC2CCCCC2)NC(=O)[C@H](Cc2c[nH]c3ccccc23)NC(=O)[C@@H](CC2CCCCC2)NC(=O)[C@@H]2CCCN2C1=O [Compound 189, Ac-Phe-[Orn-Pro-cha-Trp-Cha]] (Ac-F[Orn]P[dCha]W[Cha]; lactam 2-C) | 50 to 200 |  |  |
| NCCC[C@H](NC(=O)CCc1ccccc1)C(=O)N1CCC[C@H]1C(=O)N[C@H](CC1CCCCC1)C(=O)N[C@@H](Cc1csc2ccccc12)C(=O)N[C@@H](Cc1ccccc1)C(N)=O [Compound 324, Faz-Orn-Pro-cha-Bta-Phe-NH2] (Hydrocinnamoyl-[Orn]P[dCha][Bta]F-NH2) | 50 to 200 |  |  |
| CC(=O)N[C@@H](Cc1ccccc1)C(=O)N[C@@H](CCCN)C(=O)N1CCC[C@H]1C(=O)N[C@H](CC1CCCCC1)C(=O)N[C@@H](Cc1csc2ccccc12)C(=O)N[C@@H](Cc1cccc(F)c1)C(N)=O [Compound 255, Ac-Phe-Orn-Pro-cha-Bta-Mff-NH2] (Ac-F[Orn]P[dCha][Bta][Phe(3-F)]-NH2) | 10 to 20 |  |  |
| CC(=O)N[C@@H](Cc1ccccc1)C(=O)N[C@@H](C)C(=O)N1CCC[C@H]1C(=O)N[C@H](CC1CCCCC1)C(=O)N[C@@H](Cc1csc2ccccc12)C(=O)N[C@@H](Cc1ccccc1)C(N)=O [Compound 206, Ac-Phe-Ala-Pro-cha-Bta-Phe-NH2] (Ac-FAP[dCha][Bta]F-NH2) | 50 to 200 |  |  |
| CCCCNC(=O)N[C@@H](Cc1ccccc1)C(=O)N[C@@H](CCCN)C(=O)N1CCC[C@H]1C(=O)N[C@H](CC1CCCCC1)C(=O)N[C@@H](Cc1c[nH]c2ccccc12)C(=O)N[C@@H](Cc1ccccc1)C(N)=O [Compound 76, Bu-NH—CO-Phe-Orn-Pro-cha-Trp-Phe-NH2] ({NHBu-CO}-F[Orn]P[dCha]WF-NH2) | 200 to 2000 |  |  |
| B1 |  |  | EC50 (human C5aR(CD88) [2]): 2.4 nM |
